According to patent US10239887B2, “Positive allosteric modulators of the muscarinic acetylcholine receptor M4” (Vanderbilt University, priority 2016, dated 2019):

Target: T1, human mAChR M4 (Homo sapiens, UniProt P08173)
T1 sequence (P08173 1-479): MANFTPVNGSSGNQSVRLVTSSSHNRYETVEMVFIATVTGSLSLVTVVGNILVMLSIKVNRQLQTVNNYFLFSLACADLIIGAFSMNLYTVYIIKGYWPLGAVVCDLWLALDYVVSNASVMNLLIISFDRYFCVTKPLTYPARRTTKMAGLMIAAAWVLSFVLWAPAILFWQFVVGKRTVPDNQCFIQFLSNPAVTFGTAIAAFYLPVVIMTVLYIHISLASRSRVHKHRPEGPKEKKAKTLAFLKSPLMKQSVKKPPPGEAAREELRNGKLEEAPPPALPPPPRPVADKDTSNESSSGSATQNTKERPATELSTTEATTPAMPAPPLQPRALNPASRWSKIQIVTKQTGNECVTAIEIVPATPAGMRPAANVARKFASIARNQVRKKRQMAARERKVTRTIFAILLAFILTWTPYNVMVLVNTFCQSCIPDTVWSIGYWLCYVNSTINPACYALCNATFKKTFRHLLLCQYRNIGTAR
Experiment: mAChR M4 cell-based functional assay (calcium flux), human M4
Details: for Emax: % ACh maximum at 30 μM; for EC50: Human M4 EC50 (nM)

[1] = Table 10, calcium flux, PAM activity with EC20 acetylcholine
[2] = Table 11, calcium flux, PAM activity with EC20 acetylcholine

Row | SMILES | Emax (Table 10) | EC50 [1] | EC50 (Table 10, unit μM (bounds)) | EC50 [2] | Emax (Table 11)
1 | Cc1nnc2oc3c(NCc4cccc(C5(O)CCC5)c4)ncnc3c2c1C [Compound 300, 1-[3-[[(3,4-dimethylpyrimido [4′,5′:4,5]furo[2,3-c]pyridazin-8-yl)amino]methyl]phenyl]cyclobutanol] | 61.1% | – | – | – | –
2 | Cc1nnc2oc3c(NCc4cccc(C(C)(C)O)c4)ncnc3c2c1C [Compound 301, 2-[3-[[(3,4-dimethylpyrimido [4′,5′:4,5]furo[2,3-c]pyridazin-8-yl)amino]methyl]phenyl]propan-2-ol] | 63.4% | – | – | – | –
3 | Cc1nnc2oc3c(NC4CC4)ncnc3c2c1C [Compound 302, N-cyclopropyl-3,4-dimethyl-pyrimido [4′,5′:4,5]furo[2,3-c]pyridazin-8-amine] | 66.5% | 1300 nM | – | – | –
4 | Cc1nnc2oc3c(NC4CCC4)ncnc3c2c1C [Compound 303, N-cyclobutyl-3,4-dimethyl-pyrimido [4′,5′:4,5]furo[2,3-c]pyridazin-8-amine] | 54.8% | 1530 nM | – | – | –
5 | Cc1nnc2oc3c(NC4CCCC4)ncnc3c2c1C [Compound 304, N-cyclopentyl-3,4-dimethyl-pyrimido [4′,5′:4,5]furo[2,3-c]pyridazin-8-amine] | 45.9% | 818 nM | – | – | –
6 | Cc1nnc2oc3c(NC4CC5(COC5)C4)ncnc3c2c1C [Compound 305, 3,4-dimethyl-N-(2-oxaspiro[3.3]heptan-6-yl)pyrimido[4′,5′:4,5] furo[2,3-c]pyridazin-8-amine] | 25.6% | – | > 10000 nM | – | –
7 | Cc1nnc2oc3c(NC4CC(F)(F)C4)ncnc3c2c1C [Compound 306, N-(3,3-difluoro-cyclobutyl)-3,4-dimethyl-pyrimido [4′,5′:4,5]furo[2,3-c]pyridazin-8-amine] | 57.9% | 1750 nM | – | – | –
8 | Cc1nnc2oc3c(N4CC5(COC5)C4)ncnc3c2c1C [Compound 307, 3,4-dimethyl-8-(2-oxa-6-azaspiro[3.3]heptan-6-yl)pyrimido[4′,5′:4,5] furo[2,3-c]pyridazine] | 46.1% | 4840 nM | – | – | –
9 | Cc1nnc2oc3c(NCc4ccc(C(C)(C)O)nc4)ncnc3c2c1C [Compound 308, 2-[5-[[(3,4-dimethylpyrimido [4′,5′:4,5]furo[2,3-c]pyridazin-8-yl)amino]methyl]-2-pyridyl]propan-2-ol] | 59.5% | 9160 nM | – | – | –
10 | COc1ccc(CNc2ncnc3c2oc2nnc(C)c(C)c23)cc1 [Compound 309, N-[(4-methoxyphenyl)methyl]-3,4-dimethyl-pyrimido [4′,5′:4,5]furo[2,3-c]pyridazin-8-amine] | 73.6% | 403 nM | – | – | –
11 | COc1cc(F)c(CNc2ncnc3c2oc2nnc(C)c(C)c23)c(F)c1 [Compound 310, N-[(2,6-difluoro-4-methoxy-phenyl)methyl]-3,4-dimethyl-pyrimido[4′,5′:4,5] furo[2,3-c]pyridazin-8-amine] | 53.2% | 845 nM | – | – | –
12 | COc1c(F)cc(CNc2ncnc3c2oc2nnc(C)c(C)c23)cc1F [Compound 311, N-[(3,5-difluoro-4-methoxy-phenyl)methyl]-3,4-dimethyl-pyrimido[4′,5′:4,5] furo[2,3-c]pyridazin-8-amine] | 51% | 378 nM | – | – | –
13 | Cc1nnc2oc3c(NCc4ccc(C(C)(O)C(F)(F)F)cc4)ncnc3c2c1C (stereo not drawn) [Compound 312, 2-[4-[[(3,4-dimethylpyrimido [4′,5′:4,5]furo[2,3-c]pyridazin-8-yl)amino]methyl]phenyl]-1,1,1-trifluoro-propan-2-ol] | 70.2% | 909 nM | – | – | –
14 | Cc1nnc2sc3c(NCc4ccc(C(=O)NC5CC5)c(Cl)c4)ncnc3c2c1C [Compound 313, 2-chloro-N-cyclopropyl-4-[[(3,4-dimethylpyrimido[4′,5′:4,5]thieno[2,3-c]pyridazin-8-yl)amino]methyl]benzamide] | – | – | – | 166 nM | 75.2%
15 | Cc1nnc2sc3c(NC4CN(c5ncc(Cl)cc5Cl)C4)ncnc3c2c1C [Compound 314, N-[1-(3,5-dichloro-2-pyridyl)azetidin-3-yl]-3,4-dimethyl-pyrimido [4′,5′:4,5]thieno[2,3-c] pyridazin-8-amine] | – | – | – | 1830 nM | 71.5%
16 | Cc1nnc2sc3c(NC4CN(c5ncc(Cl)cc5F)C4)ncnc3c2c1C [Compound 315, N-[1-(5-chloro-3-fluoro-2-pyridyl)azetidin-3-yl]-3,4-dimethyl-pyrimido[4′,5′:4,5]thieno [2,3-c]pyridazin-8-amine] | – | – | – | 659 nM | 74.9%

Row | SMILES | Emax (Table 10) | EC50 [1] | EC50 (Table 10, unit μM (bounds)) | EC50 [2] | Emax (Table 11)
17 | Cc1nnc2sc3c(NCc4ccc(C(=O)NC5CCC5)c(Cl)c4)ncnc3c2c1C [Compound 316, 2-chloro-N-cyclobutyl-4-[[(3,4-dimethylpyrimido [4′,5′:4,5]thieno[2,3-c]pyridazin-8-yl)amino]methyl]benzamide] | – | – | – | 216 nM | 83.8%
18 | Cc1nnc2sc3c(NCc4ccc(C(=O)NC5CCCC5)c(Cl)c4)ncnc3c2c1C [Compound 317, 2-chloro-N-cyclopentyl-4-[[(3,4-dimethylpyrimido [4′,5′:4,5]thieno[2,3-c]pyridazin-8-yl)amino]methyl]benzamide] | – | – | – | 323 nM | 75.1%
19 | Cc1nnc2sc3c(NCc4ccc(C(=O)NC(C)C)c(Cl)c4)ncnc3c2c1C [Compound 318, 2-chloro-4-[[(3,4-dimethylpyrimido[4′,5′:4,5]thieno[2,3-c]pyridazin-8-yl)amino]methyl]-N-isopropyl-benzamide] | – | – | – | 193 nM | 81.7%
20 | Cc1nnc2sc3c(NCc4ccc(C(=O)NC5CC5(C)C)c(Cl)c4)ncnc3c2c1C (stereo not drawn) [Compound 319, 2-chloro-N-(2,2-dimethylcyclopropyl)-4-[[(3,4-dimethylpyrimido [4′,5′:4,5]thieno[2,3-c]pyridazin-8-yl)amino]methyl]benzamide] | – | – | – | 544 nM | 75.6%
21 | Cc1nnc2sc3c(NCc4ccc(C(=O)N[C@H](C)C(F)(F)F)c(Cl)c4)ncnc3c2c1C [Compound 320, 2-chloro-4-[[(3,4-dimethylpyrimido [4′,5′:4,5]thieno[2,3-c]pyridazin-8-yl)amino]methyl]-N-[(1R)-2,2,2-trifluoro-1-methyl-ethyl] benzamide] | – | – | – | 532 nM | 81.1%
22 | Cc1nnc2sc3c(NCc4ccc(C(=O)NC5CC(F)C5)c(Cl)c4)ncnc3c2c1C (stereo not drawn) [Compound 321, 2-chloro-4-[[(3,4-dimethylpyrimido [4′,5′:4,5]thieno[2,3-c]pyridazin-8-yl)amino]methyl]-N-(3-fluorocyclobutyl) benzamide] | – | – | – | 102 nM | 80.6%
23 | Cc1nnc2sc3c(NCc4ccc(C(=O)NC5CC(F)(F)C5)c(Cl)c4)ncnc3c2c1C [Compound 322, 2-chloro-N-(3,3-difluorocyclobutyl)-4-[[(3,4-dimethylpyrimido [4′,5′:4,5]thieno[2,3-c]pyridazin-8-yl)amino]methyl]benzamide] | – | – | – | 197 nM | 81.6%
24 | Cc1nnc2sc3c(NCc4ccc(C(=O)NC(C)C5(CO)CC5)c(Cl)c4)ncnc3c2c1C (stereo not drawn) [Compound 323, 2-chloro-4-[[(3,4-dimethylpyrimido [4′,5′:4,5]thieno[2,3-c]pyridazin-8-yl)amino]methyl]-N-[1-[1-(hydroxymethyl)cyclopropyl]ethyl]benzamide] | – | – | – | 449 nM | 76.3%
25 | COCCNC(=O)c1ccc(CNc2ncnc3c2sc2nnc(C)c(C)c23)cc1Cl [Compound 324, 2-chloro-4-[[(3,4-dimethylpyrimido [4′,5′:4,5]thieno[2,3-c]pyridazin-8-yl)amino]methyl]-N-(2-methoxyethyl) benzamide] | – | – | – | 164 nM | 84%
26 | CNC(=O)c1ccc(CNc2ncnc3c2sc2nnc(C)c(C)c23)cc1Cl [Compound 325, 2-chloro-4-[[(3,4-dimethylpyrimido [4′,5′:4,5]thieno[2,3-c]pyridazin-8-yl)amino]methyl]-N-methyl-benzamide] | – | – | – | 62.2 nM | 78.8%
27 | Cc1nnc2sc3c(NCc4ccc(-c5nccs5)cc4)ncnc3c2c1C [Compound 326, 3,4-dimethyl-N-[(4-thiazol-2-ylphenyl)methyl]pyrimido[4′,5′:4,5] thieno[2,3-c]pyridazin-8-amine] | – | – | – | 1070 nM | 64.9%
28 | Cc1nnc2sc3c(NCc4cccc(-c5ncccn5)c4)ncnc3c2c1C [Compound 327, 3,4-dimethyl-N-[(3-pyrimidin-2-ylphenyl)methyl]pyrimido [4′,5′:4,5]thieno[2,3-c] pyridazin-8-amine] | – | – | – | 1770 nM | 64.6%
29 | Cc1nnc2sc3c(NCc4cccc(-n5cccn5)c4)ncnc3c2c1C [Compound 328, 3,4-dimethyl-N-[(3-pyrazol-1-ylphenyl)methyl]pyrimido [4′,5′:4,5]thieno[2,3-c] pyridazin-8-amine] | – | – | – | 1970 nM | 63.6%
30 | Cc1nnc2sc3c(N4CC[C@H](Oc5ccnc(Cl)c5)C4)ncnc3c2c1C [Compound 329, 8-[(3S)-3-[(2-chloro-4-pyridyl)oxy]pyrrolidin-1-yl]-3,4-dimethyl-pyrimido [4′,5′:4,5]thieno[2,3-c] pyridazine] | – | – | – | 107 nM | 76.6%
31 | Cc1cc(O[C@H]2CCN(c3ncnc4c3sc3nnc(C)c(C)c34)C2)ccn1 [Compound 330, 3,4-dimethyl-8-[(3S)-3-[(2-methyl-4-pyridyl)oxy]pyrrolidin-1-yl]pyrimido [4′,5′:4,5]thieno[2,3-c] pyridazine] | – | – | – | 111 nM | 74.4%
